# Read-outs that look alike come from different tables or passages of the source.
# What was measured:
# [1] = tested on: multiple myeloma residual disease (diseased cells mobilized into blood)
# Description: Patients may be matched across experimental groups by age, sex, and other clinical factors, such as multiple myeloma burden or genetic profile of the multiple myeloma in the patient. When in complete remission using conventional techniques after appropriate therapy, patients in the control group undergo a blood as well as bone marrow examination each of which is subjected to MRD detection/assay using the ClonoSEQ® technique (Adaptive Biotechnologies). […] About 12 hours after plerixafor administration, patients in the LBYE group undergo a blood draw. The blood samples are subjected to MRD assay using the ClonoSEQ® technique. […] In another variation of the experiment, where myeloma patients serve as their own controls, patients undergo bone marrow examination after attaining complete remission. The marrow is subjected to MRD assay by ClonoSEQ®. After the marrow exam is done, each patient receives 20 mg plerixafor and the blood is sampled 12 hours later. Blood samples are subjected to MRD assay by ClonoSEQ®.
# cfDNA / ctDNA = settings: plasma
# Description: Cell-free DNA (cfDNA) is isolated from patient plasma samples according to known methods. The concentration of the isolated cfDNA from LBYE and control patients are determined.
# [2] = tested on: multiple myeloma mutations and genetic variations; settings: single dose of 20 mg, blood 12 hours later, vs control group bone marrow
# Source text: Patients may be matched across experimental groups by age, sex, and other clinical factors, such as multiple myeloma burden or genetic profile of the multiple myeloma in the patient.
# [3] = tested on: lymphoma residual disease (diseased cells mobilized into blood)
# Description: About 12 hours after plerixafor administration, patients in the LBYE group undergo a blood draw. The blood samples are subjected to MRD assay. […] In another variation of the experiment, where lymphoma patients serve as their own controls, patients undergo blood sampling after attaining complete remission. The blood is subjected to MRD assay. After the blood test is done, each patient receives 20 mg plerixafor and the blood is sampled 12 hours later. These blood samples are subjected to MRD assay by the same technique.
# [4] = tested on: solid tumor residual disease (diseased cells mobilized into blood)
# Description: When in complete remission using conventional techniques after appropriate therapy, patients in the control group undergo a blood examination each of which is subjected to MRD detection/assay using an appropriate assay (e.g. The Guardant 360 liquid biopsy or the Tempus XF liquid biopsy). […] About 12 hours after plerixafor administration, patients in the LBYE group undergo a blood draw. The blood samples are subjected to the same MRD assay.
# In another variation of the experiment, where cancer patients serve as their own controls, patients undergo blood examination after attaining complete remission. Afterwards, each patient receives 20 mg plerixafor and the blood is sampled 12 hours later. Both samples are subjected to MRD assay.
# [5] = tested on: lymphoma mutations and genetic variations; settings: single dose of 20 mg, blood 12 hours later, vs control group bone marrow
# Description: Human patients who are diagnosed with lymphoma are split into two experimental groups, an “LBYE” group and a “control group.” Patients may be matched across experimental groups by age, sex, and other clinical factors, such as lymphoma burden or genetic profile of the lymphoma in the patient.
# Patients in the “LBYE” experimental group are administered a single dose of 20 mg plerixafor and undergo blood sampling 12 hours later. This sample is analyzed for the presence of various mutations and genetic variations known to influence prognosis in myeloma. […] In a variation on the above experiment, the LBYE group patients undergo a bone marrow examination which is subjected to appropriate testing.
# In another variation on the experiment, the LBYE group's marrow and blood sample are pooled and analyzed in a single assay to make the test more cost-effective. […] The mononuclear cell fraction is analyzed for the presence of lymphoma CTCs by multiparametric flow cytometry according to methods described herein. Lymphoma CTCs are genetically profiled, e.g., by sequencing to determine the mutational profile of the CTCs. Mutational profile of the CTC sample is, in some cases, compared to mutational profile of lymphoma cells obtained from bone marrow sample from the same patient.
# [6] = tested on: solid tumor mutations and genetic variations; settings: single dose of 20 mg, blood 12 hours later, vs control group solid tumor examination
# Description: Human patients who are diagnosed with one or more solid tumors are split into two experimental groups, an “LBYE” group and a “control group.” Patients may be matched across experimental groups by age, sex, and other clinical factors, such as solid tumor burden or genetic profile of the solid tumor in the patient.
# Patients in the “LBYE” experimental group are administered a single dose of 20 mg plerixafor and undergo blood sampling 12 hours later. This sample is analyzed for the presence of various mutations and genetic variations known to influence prognosis in myeloma. […] In a variation on the above experiment, the LBYE group patients undergo a solid tumor examination which is subjected to appropriate testing.
# In another variation on the experiment, the LBYE group's tumor and blood samples are pooled and analyzed in a single assay to make the test more cost-effective. […] The mononuclear cell fraction is analyzed for the presence of solid tumor CTCs by multiparametric flow cytometry according to methods described herein. Solid tumor CTCs are genetically profiled, e.g., by sequencing to determine the mutational profile of the CTCs. Mutational profile of the CTC sample is, in some cases, compared to mutational profile of solid tumor cells obtained from solid tumor sample from the same patient.
# HSC = settings: in vivo; cited from earlier work
# [7] = complete remission, single 20 mg dose, blood about 12 hours after, vs control group blood and bone marrow
# [8] = patients as own controls, 20 mg, blood 12 hours later
structure (smiles),measurement,setting,value
"c1cc(CN2CCCNCCNCCCNCC2)ccc1CN1CCCNCCNCCCNCC1 [plerixafor, 1-{[4-(1,4,8,11-tetrazacyclotetradec-1-ylmethyl)phenyl]methyl}-1,4,8,11-tetrazacyclotetradecane]","Number of patients with residual disease detected (MRD assay, ClonoSEQ)",[1]; [7],Residual disease is detected in a greater number of patients in the LBYE group than in the control group
same,"Proportion of patients positive for MRD, blood after LBYE vs bone marrow","[1]; patients as own controls, 20 mg, blood 12 hours later, ClonoSEQ",A greater proportion of patients is found to be positive for MRD from the blood after the LBYE technique than the bone marrow
same,cfDNA concentration/amount after LBYE,"cfDNA / ctDNA; lymphoma, patients as own controls, amongst patients positive for MRD",the concentration/amount of cfDNA is higher after LBYE
same,"cfDNA concentration, LBYE group vs control group",cfDNA / ctDNA; multiple myeloma,higher cfDNA concentrations than patients in the control group
same,"cfDNA concentration, LBYE group vs control group",cfDNA / ctDNA; solid tumor,higher cfDNA concentrations than patients in the control group
same,Frequency and breadth of abnormalities (mutations and genetic variations),[2],greater frequency and breadth of abnormalities than those in the control group
same,Number of patients with residual disease detected (MRD assay),[3]; [7],Residual disease is detected in a greater number of patients in the LBYE group than in the control group
same,"Proportion of patients positive for MRD, blood after LBYE vs non-LBYE blood sample",[3]; [8],A greater proportion of patients is found to be positive for MRD from the blood after the LBYE technique than the non-LBYE blood sample
same,Number of patients with residual disease detected (MRD assay),"[4]; complete remission, single 20 mg dose, blood about 12 hours after, vs control group blood",Residual disease is detected in a greater number of patients in the LBYE group than in the control group
same,"Proportion of patients positive for MRD, post- vs pre-plerixafor blood sample",[4]; [8],"A greater proportion of patients is found to be positive for MRD from the blood sample obtained after plerixafor administration, as compared to the pre-plerixafor blood sample"
same,Frequency and breadth of abnormalities (mutations and genetic variations),[5],greater frequency and breadth of abnormalities than those in the control group
same,Frequency and breadth of abnormalities (mutations and genetic variations),[6],greater frequency and breadth of abnormalities than those in the control group
same,Mobilization of HSC,HSC,rapidly mobilize HSC within hours

# From patent US11933783B2, “Liquid biopsy yield enhancement” (priority 2020, dated 2024)
